{"source": "paper PMC6162336", "about": "“An Afferent Neuropeptide System Transmits Mechanosensory Signals Triggering Sensitization and Arousal in C. elegans” (Neuron, 2018)", "key": {"ASH::ChR2 animals": {"test_system": "ASH::ChR2 animals", "experiment": "Cross-modal sensitization assay (reversal response to optogenetic ASH activation)", "type": "in vivo, C. elegans", "description": "Channelrhodopsin experiments: 1-2 day old well-fed adult animals were used for all experiments. For LED stimulation: for experiments with flp-20 mutant animals, a custom setup was used as described in ([Ezcurra et al., 2011]); for experiments on frpr-3 mutant animals and RNAi transgenic lines, a custom setup was used as in ([Ardiel et al., 2016], [Ardiel et al., 2017]) using 480 nm Luxeon star LEDs with 450 uw/mm^2 power. In contrast to locomotion arousal experiments described above, these experiments used an automated tapper, which produces equivalent speed responses (Figure S1C). […] ATR (R2500 Sigma-Aldrich) was provided to animals by feeding as described in ([Rabinowitch et al., 2016b]). > 20 animals were placed onto the seeded plate and at least 4 plates were assayed per condition and genotype on multiple days for all cross-modal sensitization behavioral experiments. Video recording was started 5 min after the plate was placed on the stage. For animals exposed to a pre-arousing tap, 1 tap was used, followed by a 20 s interval and then a 2 s blue light stimulation. […]\nTo test if 2-nonanone exposure could sensitize ASH-dependent reversals, 200 μL undiluted nonanone was spread with a pipette around the rim inside the lid of Petri dish. […] For all experiments, reversal length was analyzed using MATLAB ([Ardiel et al., 2017], [Ezcurra et al., 2011], [Ramot et al., 2008])."}, "ASH neuron": {"test_system": "ASH neuron", "experiment": "Nonanone sensitization assay, ASH calcium imaging in microfluidics chip", "type": "in vivo, C. elegans", "details": "5 s nonanone pulse (100%) then 0.5 M glycerol; GCaMP3; n = 9-10", "protocol": "In microfluidics chip: Calcium imaging on 1-2 day old adult animals was performed in custom-designed microfluidic devices as described (using mechanical stimulus module from [Cho et al., 2018], [Cho et al., 2017]). These experiments were performed on a Leica DMIRB inverted microscope using a 40x air objective (N.A. 0.75). Video sequences were captured using a Hamamatsu EM-CCD camera with 100 ms exposure time. Simultaneous dual color imaging was performed using a DV2 beamsplitter (Photometrics) containing a GFP(520 nm)/RFP(605 nm) filter set. Excitation light for fluorescent imaging was delivered through a projector system ([Stirman et al., 2011]). […] Videos were recorded for 40-90 s following stimulus delivery. For analysis of calcium transients, fluorescence intensities for each frame were extracted using a custom MATLAB script ([Cho et al., 2018], [Cho et al., 2017]). […] GCaMP3 and RFP intensities were measured as the mean pixel intensity of the 100 brightest pixels in a circular region of interest (ROI) with a 10 pixel radius. […] All quantification is provided as the ratio of GCaMP3 to tagRFP fluorescence intensity. […]"}, "[1]": {"test_system": "C. elegans wild-type animals", "experiment": "Locomotion assay after odorant stimuli", "type": "in vivo", "details": "benzaldehyde 1% in ethanol, 2-nonanone undiluted, dropped in front of the nose"}, "FRPR-3": {"target": "T1, FRPR-3 (Caenorhabditis elegans, UniProt Q66GU0)", "T1 sequence (Q66GU0 1-360)": "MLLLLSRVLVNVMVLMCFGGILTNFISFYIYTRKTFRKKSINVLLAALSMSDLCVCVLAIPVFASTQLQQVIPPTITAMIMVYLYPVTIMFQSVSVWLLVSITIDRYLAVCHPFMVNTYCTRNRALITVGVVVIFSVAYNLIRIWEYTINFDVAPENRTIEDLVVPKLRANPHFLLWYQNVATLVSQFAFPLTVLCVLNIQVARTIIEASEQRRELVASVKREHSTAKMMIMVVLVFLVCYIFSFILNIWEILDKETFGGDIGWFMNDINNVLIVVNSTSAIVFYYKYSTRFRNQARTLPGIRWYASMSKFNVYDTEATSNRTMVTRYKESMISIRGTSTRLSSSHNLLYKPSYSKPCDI", "experiment": "In vitro GPCR activation assay (aequorin calcium bioluminescence, CHO/mtAEQ/Gα16 cells)", "type": "cell-based, C. elegans", "details": "mammalian cells expressing aequorin and promiscuous Gα16", "protocol": "Cell-based activation assays were performed as described ([Beets et al., 2012]). FRPR-3/C26F1.6 cDNA was cloned into the pcDNA3.1(+) TOPO expression vector (Thermo Fisher Scientific). Receptor activation was studied in Chinese hamster ovary cells (CHO) stably expressing apo-aequorin (mtAEQ) targeted to the mitochondria as well as the human Gα16 subunit. The CHO-K1 cell line (PerkinElmer, ES-000-A2) was used for receptor activation assays. CHO/mtAEQ/Gα16 cells were transiently transfected with the FRPR-3 cDNA construct or the empty pcDNA3.1(+) vector using the Lipofectamine transfection reagent (Thermo Fisher Scientific). Cells expressing the receptor were shifted to 28°C 1 day later, and collected 2 days post-transfection in BSA medium (DMEM/HAM’s F12 with 15 mM HEPES, without phenol red, 0.1% BSA) loaded with 5 μM coelenterazine h (Thermo Fisher Scientific) for 4 h to reconstitute the holo-enzyme aequorin. Cells (25,000 cells/well) were exposed to synthetic peptides in BSA medium, and aequorin bioluminescence was recorded for 30 s on a MicroBeta LumiJet luminometer (PerkinElmer, Waltham Massachusetts) in quadruplicate. For dose-response evaluations, after 30 s of ligand-stimulated calcium measurements, Triton X-100 (0.1%) was added to the well to obtain a measure of the maximum cell Ca^2+ response. BSA medium without peptides was used as a negative control and 1 μM ATP was used to check the functional response of the cells. Cells transfected with the empty vector were used as a negative control (not shown). EC50 values were calculated from dose-response curves, constructed using a nonlinear regression analysis, with sigmoidal dose-response equation (Prism 6.0)."}}, "note": "Where no end group is shown, it is not given here."}
{"compound": "O=Cc1ccccc1", "note": "[benzaldehyde]", "values": [{"measurement": "Effect of odorant presence on tap-evoked enhancement of ASH responses", "setting": "ASH::ChR2 animals; 1% benzaldehyde in ethanol on lid, tap, 20 s wait, blue light 2 s, n>15", "result": "did not prevent enhancement of ASH responses by tap"}]}
{"compound": "CCCCCCCC(C)=O", "note": "[nonanone, 2-nonanone]", "values": [{"measurement": "Enhancement of behavioral (reversal) response to optogenetic ASH activation by prior odorant exposure", "setting": "ASH::ChR2 animals; 200 μL undiluted nonanone on lid, blue light 40 s later, n > 7", "result": "nor did it enhance behavioral responses to optogenetic activation of ASH"}, {"measurement": "Enhancement of ASH calcium responses to glycerol by prior odorant exposure", "setting": "ASH neuron", "result": "did not significantly enhance ASH responses to glycerol"}, {"measurement": "Increase in locomotion speed after stimulus", "setting": "[1]", "result": "can evoke locomotor arousal"}]}
{"compound": "AMMRF-NH2 [AMMRFa]", "values": [{"measurement": "EC50 values for activation of FRPR-3 (in words)", "setting": "FRPR-3", "result": "low nanomolar range"}]}
{"compound": "AVFRM-NH2 [AVFRMa]", "values": [{"measurement": "EC50 values for activation of FRPR-3 (in words)", "setting": "FRPR-3", "result": "low nanomolar range"}]}
{"compound": "SVFRL-NH2 [SVFRLa]", "values": [{"measurement": "EC50 values for activation of FRPR-3 (in words)", "setting": "FRPR-3", "result": "low nanomolar range"}]}
